Columns and labels:
Format in all cases: cell-based, Chinese Hamster
[1] = tested on: Cell Line 1; experiment: Shake flask fedbatch culture of Cell Line 1, cell culture performance (Example 1)
Protocol: (§1) Two recombinant Chinese Hamster Ovary (CHO) cell lines expressing two different humanized monoclonal antibodies (Antibody 1, Antibody 2) were evaluated in two different culture vessels (shaker flasks and laboratory scale bioreactors). Both cell lines were of CHO DUX-B11 origin based on a dhfr (dihydrofolate reductase) expression system. Both cell lines were cultured in the same chemically defined basal media (CDBM), with Cell Line 1 also utilizing a chemically-defined feed media (CDFM). Each of the respective media were supplemented with selected monosaccharides and oligosaccharides to evaluate their potential impact on the resulting N-glycan oligosaccharide profile. In preparing the cultures, the cell lines were serially expanded through separate seed train inoculums to generate enough cells for inoculation.
(§2) Viable cell density (VCD) and cell viability values were measured through trypan blue exclusion via Cedex automated cell counters (Roche Applied Science, Indianapolis, Ind.), glucose and lactate values were measured with a ABL-805 (Radiometer Medical, Denmark) blood gas analyzer. Offline pH, dissolved oxygen (DO), and pCO2 measurements were performed with a ABL-805 (Radiometer Medical, Denmark) blood gas analyzer. Osmolality was measured on a Multi-Osmette 2430 osmometer (Precision Systems, Natick, Mass.).
(§3) Antibody titers were measured from crude cell culture harvests on a Poros A™ (Life Technologies, Carlsbad, Calif.) affinity column using an Agilent (Santa Clara, Calif.) 1200 Series HPLC, or equivalent, operating with a low pH, step elution gradient with detection at 280 nm. Absolute concentrations were assigned with respect to reference standard calibration curves.
Cell Line 1 was cultured in shake flasks in fedbatch mode after an abbreviated seed train. Sucrose and tagatose were supplemented into chemically-defined basal and feed media at concentrations of 30, 50, and 70 mM, and compared to an unsupplemented control condition. The viable cell density (VCD), viability, and harvest titer results are shown in FIGS. 3A-3C and FIGS. 5A-5C for the sucrose, and tagatose conditions, respectively. Both sugars facilitated a slight decrease in VCD, with the higher concentrations also supporting the lowest peak VCD. […] As such, the upper threshold of sucrose or tagatose concentration should not be exceeded.

[2] = tested on: Cell Line 2; experiment: Shake flask semi-fedbatch culture of Cell Line 2, cell culture performance (Example 1); conditions: 7 mM
Protocol: as §1, §2, §3
Cell Line 2 was evaluated in shake flask culture in semi-fedbatch mode. Sucrose was supplemented into the basal media at various concentrations to evaluate the resulting impact on cell culture performance, as well as the protein glycosylation profile. […] There was however, a very significant impact on the protein glycosylation profiles of harvest samples across all sucrose concentrations evaluated (FIG. 12). […]

[3] = tested on: Cell Line 2; experiment: Shake flask fed batch culture of Cell Line 2 (DVD 1), cell culture performance (Example 2); conditions: for viable cell density over time: 1, 30 and 50 mM vs control
Protocol: Two recombinant Chinese Hamster Ovary (CHO) cell lines expressing two different recombinant glycoproteins were evaluated in two different cultures vessels (shaker flasks and 3 L laboratory scale bioreactors). Cell Line 1 expressed Antibody 1, Cell Line 2 expressed Dual Variable Domain Immunoglobulin 1 (DVD 1) and Cell Line 3 expressed Antibody 2. Antibodies 1 and 2 are IgG1 proteins, and DVD 1 is an immunoglobulin with two variable domains as documented previously (Wu C. et al., (2007) Nat. Biotechnol 25(11):1290-1297). All cell lines were of CHO DUX-B11 origin based on a dhfr (dihydrofolate reductase) expression system. All cell lines were cultured in the same chemically defined basal media. Cell lines 1 and 2 were fed with the same chemically-defined feed media, but Cell Line 1 was fed media that was formulated at a 50% higher concentration. Each of the respective media were supplemented with either sucrose or tagatose to evaluate their potential impact on the resulting N-glycan oligosaccharide profile. All sugars were purchased from Sigma-Aldrich (St. Louis, Mo.). In preparation of the cultures, the cell lines were serially expanded through separate seed train inoculums to generate enough cells for inoculation.
as §2, with “performed with an ABL-805 (Radiometer” for “performed with a ABL-805 (Radiometer”
as §3
Experimental results are expressed as mean±SD for those results generated from at least three independent cultures. Experimental results are expressed as the measured value for those results generated from less than three independent cultures. Results were evaluated for statistical significance through 2-sided t-tests, with a requirement of p<0.05 relative to the unsupplemented control conditions.
Cell Line 2 was cultured in shake flasks in fed batch mode after an abbreviated seed train. Sucrose and tagatose were supplemented into chemically-defined basal and feed media at concentrations of 1, 30, and 50 mM, and process performance results were compared to unsupplemented control conditions. The viable cell density (VCD), viability, and harvest titer results are shown in FIGS. 15A-15C for the sucrose supplemented cultures and FIGS. 16A-16C for the tagatose supplemented cultures.

SMILES | Harvest titer (adverse impact) ([1]; 30 mM supplement vs control) | Harvest titer (adverse impact) ([1]; 50 mM supplement vs control) | Harvest titer (adverse impact) ([1]; 70 mM supplement vs control) | cell viability ([1]; 70 mM supplement vs control) | cell viability ([2]; 15 mM and 30 mM) | harvest titer ([2]; 15 mM and 30 mM) | drop in peak viable cell density ([2]; 15 mM and 30 mM vs control) | harvest titer reduction ([3]; 50 mM vs control) [%] | reduction in peak VCD ([3]; 50 mM vs control) | viable cell density over time [3] | relative harvest titer ([3]; 1 mM vs control) | viability after Day 8 ([3]; 30 mM and 50 mM vs control) | harvest titer decrease ([3]; 30 mM vs control) [%]
OC[C@H]1O[C@@](CO)(O[C@H]2O[C@H](CO)[C@@H](O)[C@H](O)[C@H]2O)[C@@H](O)[C@@H]1O [sucrose] | did not adversely impact titer | did not adversely impact titer | reduce the harvest titer significantly | decrease in cell viability that was larger, and earlier in the culture | not significantly different from each other | not significantly different from each other | 1×10^6-2×10^6 cells/mL | 48 | at most 2×10^6 cells/mL | remained approximately the same | – | – | –
O=C(CO)[C@@H](O)[C@@H](O)[C@H](O)CO [tagatose] | did not adversely impact harvest titer | did | did | – | – | – | – | 38 | – | slightly higher compared to the control | did not adversely impact relative harvest titer | remained higher than the control | 15

Reference: US9499614B2, “Methods for modulating protein glycosylation profiles of recombinant protein therapeutics using monosaccharides and oligosaccharides” (AbbVie, Inc., priority 2013, dated 2016)
